{"source": "patent US11641856B2", "about": "(SMITH & NEPHEW, INC., priority 2015, dated 2023)", "key": {"S. aureus biofilm": {"system": "S. aureus biofilm", "assay": "In-vitro S. aureus biofilm model, treatment with oils of various polarity", "format": "cell-based", "conditions": "oils with log P within vs outside 0.5 to 2.0"}, "[1]": {"conditions": "reference standards with known log P values used for HPLC calibration; cited from earlier work"}}}
{"compound": "CC(=O)OCC(COC(C)=O)OC(C)=O", "note": "[glyceryl triacetate]", "values": [{"measurement": "antibacterial activity against biofilms (log reduction of bacteria vs. moist control, FIG. 1)", "setting": "S. aureus biofilm", "value": "did not exhibit very much antimicrobial activity against biofilms"}]}
{"compound": "CCOC(=O)c1cc(O)c(O)c(O)c1", "note": "[Ethyl Gallate]", "values": [{"measurement": "antibacterial activity against biofilms (log reduction of bacteria vs. moist control, FIG. 1)", "setting": "S. aureus biofilm", "value": "exhibited some antibacterial activity against biofilms"}]}
{"compound": "Oc1cccc(O)c1", "note": "[Resorcinol]", "values": [{"measurement": "antibacterial activity against biofilms (log reduction of bacteria vs. moist control, FIG. 1)", "setting": "S. aureus biofilm", "value": "exhibited some antibacterial activity against biofilms"}]}
{"compound": "COC(=O)c1ccccc1", "note": "[methyl benzoate]", "values": [{"measurement": "antibacterial activity against biofilms (log reduction of bacteria vs. moist control, FIG. 1)", "setting": "S. aureus biofilm", "value": "did not exhibit very much antimicrobial activity against biofilms"}]}
{"compound": "diethyl acetate", "values": [{"measurement": "antibacterial activity against biofilms (log reduction of bacteria vs. moist control, FIG. 1)", "setting": "S. aureus biofilm", "value": "did not exhibit very much antimicrobial activity against biofilms"}]}
{"compound": "CCCCOC(=O)CCCCCCCCC(=O)OCCCC", "note": "[Dibutyl sebacate]", "values": [{"measurement": "log P", "setting": "[1]", "value": 6.3}]}
{"compound": "CCCCCCCC/C=C\\CCCCCCCC(=O)O", "note": "[oleic acid]", "values": [{"measurement": "antibacterial activity against biofilms (log reduction of bacteria vs. moist control, FIG. 1)", "setting": "S. aureus biofilm", "value": "did not exhibit very much antimicrobial activity against biofilms"}]}
{"compound": "CCCOC(=O)c1cc(O)c(O)c(O)c1", "note": "[Propyl Gallate]", "values": [{"measurement": "antibacterial activity against biofilms (log reduction of bacteria vs. moist control, FIG. 1)", "setting": "S. aureus biofilm", "value": "exhibited some antibacterial activity against biofilms"}]}
{"compound": "O=C(C=Cc1ccccc1)OCc1ccccc1", "note": "[Benzyl cinnamate]", "values": [{"measurement": "log P", "setting": "[1]", "value": 4.06}]}
{"compound": "O=C(O)c1ccccc1", "note": "[Benzoic Acid]", "values": [{"measurement": "antibacterial activity against biofilms (log reduction of bacteria vs. moist control, FIG. 1)", "setting": "S. aureus biofilm", "value": "exhibited some antibacterial activity against biofilms"}]}
{"compound": "CCCCCCCCCCCC(=O)OCC(O)CO", "note": "(centres unmarked) [MONOMULS®, glyceryl monolaurate]", "values": [{"measurement": "antibacterial activity against biofilms (log reduction of bacteria vs. moist control, FIG. 1)", "setting": "S. aureus biofilm", "value": "did not exhibit very much antimicrobial activity against biofilms"}]}
{"compound": "OCc1ccccc1", "note": "[Benzyl Alcohol]", "values": [{"measurement": "antibacterial activity against biofilms (log reduction of bacteria vs. moist control, FIG. 1)", "setting": "S. aureus biofilm", "value": "exhibited some antibacterial activity against biofilms"}]}
{"compound": "CCOC(C)=O", "note": "[Ethyl Acetate]", "values": [{"measurement": "antibacterial activity against biofilms (log reduction of bacteria vs. moist control, FIG. 1)", "setting": "S. aureus biofilm", "value": "exhibited some antibacterial activity against biofilms"}]}
{"compound": "CCCCCCCCCCCCCC(=O)OC(C)C", "note": "[isopropyl myristate]", "values": [{"measurement": "antibacterial activity against biofilms (log reduction of bacteria vs. moist control, FIG. 1)", "setting": "S. aureus biofilm", "value": "did not exhibit very much antimicrobial activity against biofilms"}]}
